Assay results taken from ChEMBL document CHEMBL5729391, “Acyclic antivirals” (2022).

Assay: Inhibition of HBV: Determination of 50% inhibitory concentration (EC50) of compounds in […] cells were performed by the following procedure. On the first day, cells were seeded at 30,000 cells per 100 μL well in Biocoat collage coated flat bottom 96 well plates. On the following day, test compounds were solubilized in 100% DMSO to 100× the desired final testing concentration. Each compound was then serially diluted (1:3) up to 9 different concentrations. Compounds in 100% DMSO are reduced to 10% DMSO by diluting 1:10 in assay media. The final DMSO concentration was 1%. The cells were incubated at 37° C. for 72 hours.The antiviral activity was measured using a quantitative kinetic reverse transcription-polymerase chain reaction (RT-PCR) assay directly measuring the HBV viral copy numbers from the supernatant of HepG2.117 cells. EC50 was defined as the concentration of compound at which the HBV viral copy numbers from the HepG2.117 cells was reduced 50% relative to its level in the absence of compound. HBV viral copy numbers are normalized to the level observed in the absence of inhibitor, which was defined as 100%.
Type: cell-based

Compound	EC50
CC(C)OC(=O)OCOP(=O)(CO[C@H](C)Cc1cnn2c(N)ncnc12)OCOC(=O)OC(C)C	> 100000 nM
CC(C)OC(=O)OCOP(=O)(COCCc1ccc2c(N)ncnn12)OCOC(=O)OC(C)C	in the range around 5500 nM
CC(C)OC(=O)[C@H](C)NP(=O)(COC(C)Cc1cnc2c(=O)[nH]c(N)nn12)Oc1ccccc1 (some centres undefined)	< 1000 nM
CC(C)OC(=O)OCOP(=O)(COC(C)Cc1ccc2c(=O)[nH]c(N)nn12)OCOC(=O)OC(C)C (centres undefined)	< 1000 nM
CC(C)OC(=O)OCOP(=O)(COC(CF)Cc1cnn2c(N)ncnc12)OCOC(=O)OC(C)C (centres undefined)	< 1000 nM
Nc1ncnn2c(C[C@H](CF)OCP(=O)(O)O)cnc12	< 1000 nM
CC(C)OC(=O)OCOP(=O)(CO[C@H](C)Cc1cnc2c(N)ncnn12)OCOC(=O)OC(C)C	< 1000 nM
Nc1ncnn2c(C[C@@H](CF)OCP(=O)(O)O)cnc12	in the range around 55000 nM
CC(C)OC(=O)[C@H](C)NP(=O)(CO[C@@H](CF)Cc1cnn2c(N)ncnc12)Oc1ccccc1 (some centres undefined)	< 1000 nM
Nc1ncnc2c(CC3(OCP(=O)(O)O)CC3)cnn12	in the range around 55000 nM
CC(C)OC(=O)[C@H](C)NP(=O)(CO[C@H](C)Cc1cnc2c(N)ncnn12)Oc1ccccc1 (some centres undefined)	< 1000 nM
CC(C)OC(=O)OCOP(=O)(CO[C@H](C)Cc1ccc2c(N)ncnn12)OCOC(=O)OC(C)C	< 1000 nM
CC(C)OC(=O)OCOP(=O)(CO[C@@H](C)Cc1cnn2c(N)ncnc12)OCOC(=O)OC(C)C	< 1000 nM
CC(Cc1cnc2c(=O)[nH]c(N)nn12)OCP(=O)(O)O (centres undefined)	< 1000 nM
CC(C)OC(=O)OCOP(=O)(COC(C)Cc1ccc2c(N)nc(N)nn12)OCOC(=O)OC(C)C (centres undefined)	in the range around 5500 nM
Nc1ncnc2c(C[C@@H](OCP(=O)(O)O)C(F)F)cnn12	in the range around 5500 nM
CC(C)OC(=O)[C@H](C)NP(=O)(CO[C@H](CF)Cc1cnn2c(N)ncnc12)Oc1ccccc1 (some centres undefined)	< 1000 nM
CC(C)OC(=O)[C@H](C)NP(=O)(CO[C@H](C)Cc1cnn2c(N)ncnc12)Oc1ccccc1 (some centres undefined)	< 1000 nM
Nc1ncnc2c(C[C@H](OCP(=O)(O)O)C(F)F)cnn12	in the range around 5500 nM
